Reference: patent US11020395B2, “Cycloalkyl substituted triazole compounds as agonists of the APJ receptor” (AMGEN INC., priority 2016, dated 2021)

Molecular target: human APJ receptor (Homo sapiens (Human), UniProt P35414)
Test: [35S]GTPγS binding assay on membranes from CHO cells stably expressing human APJ receptor
Assay type: biochemical
Settings: [35S]GTPγS SPA, read-out: Activity hAPJ SPA EC50 IP
Method in brief: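 Agonist-stimulated [35S]GTPγS binding measured on membranes of a stable human APJ CHO line, 90 min at room temperature, with GDP, MgCl2 and NaCl levels optimized beforehand. Means of independent runs fitted by non-linear regression to give EC50.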

Sequence of human APJ receptor (P35414 whole entry): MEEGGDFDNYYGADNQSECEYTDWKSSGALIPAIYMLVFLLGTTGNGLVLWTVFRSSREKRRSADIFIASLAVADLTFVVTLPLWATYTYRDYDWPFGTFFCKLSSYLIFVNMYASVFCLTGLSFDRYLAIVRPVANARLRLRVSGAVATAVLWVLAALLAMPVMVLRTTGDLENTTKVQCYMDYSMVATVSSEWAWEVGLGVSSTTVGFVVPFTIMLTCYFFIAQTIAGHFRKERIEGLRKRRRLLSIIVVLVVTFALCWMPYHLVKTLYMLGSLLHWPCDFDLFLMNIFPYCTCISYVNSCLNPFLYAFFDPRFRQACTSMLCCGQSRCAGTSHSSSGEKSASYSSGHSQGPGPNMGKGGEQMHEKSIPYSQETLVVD

Compound	EC50 [nM]
COc1ncnc(OC)c1-n1c(NS(=O)(=O)[C@@H](C)[C@H](OC)c2ncc(Cl)cn2)nnc1[C@H]1C[C@](C)(F)C1 (single isomer, unassigned) [Example 237.0, (1R,2S)-1-(5-chloropyrimidin-2-yl)-N-(4-(4,6-dimethoxypyrimidin-5-yl)-5-((1s,3S)-3-fluoro-3-methylcyclobutyl)-4H-1,2,4-triazol-3-yl)-1-methoxypropane-2-sulfonamide or (1R,2S)-1-(5-chloropyrimidin-2-yl)-N-(4-(4,6-dimethoxypyrimidin-5-yl)-5-((1r,3S)-3-fluoro-3-methylcyclobutyl)-4H-1,2,4-triazol-3-yl)-1-methoxypropane-2-sulfonamide]	30
COc1ncnc(OC)c1-n1c(NS(=O)(=O)[C@@H](C)[C@H](OC)c2ncc(Cl)cn2)nnc1[C@H]1C[C@@H](Cl)C1 (single isomer, unassigned) [Example 164.0, (1R,2S)-1-(5-chloropyrimidin-2-yl)-N-(4-(4,6-dimethoxypyrimidin-5-yl)-5-((1s,3R)-3-chlorocyclobutyl)-4H-1,2,4-triazol-3-yl)-1-methoxypropane-2-sulfonamide or (1R,2S)-1-(5-chloropyrimidin-2-yl)-N-(4-(4,6-dimethoxypyrimidin-5-yl)-5-((1r,3S)-3-chlorocyclobutyl)-4H-1,2,4-triazol-3-yl)-1-methoxypropane-2-sulfonamide]	0.54
CO[C@H](c1ncc(Cl)cn1)[C@H](C)S(=O)(=O)Nc1nnc(C2CCC2)n1C1CCOCC1 [Example 97.0, (1R,2S)-1-(5-chloropyrimidin-2-yl)-N-(5-cyclobutyl-4-(tetrahydro-2H-pyran-4-yl)-4H-1,2,4-triazol-3-yl)-1-methoxypropane-2-sulfonamide]	370
(1R,2S)-1-(5-chloropyrimidin-2-yl)-N-(4-(2,6-dimethoxyphenyl)-5-((R)-3-oxocyclopentyl)-4H-1,2,4-triazol-3-yl)-1-methoxypropane-2-sulfonamide or (1R,2S)-1-(5-chloropyrimidin-2-yl)-N-(4-(2,6-dimethoxyphenyl)-5-((S)-3-oxocyclopentyl)-4H-1,2,4-triazol-3-yl)-1-methoxypropane-2-sulfonamide [Example 225.0]	160
COc1ncnc(OC)c1-n1c(NS(=O)(=O)[C@@H](C)[C@H](OC)c2ncc(Cl)cn2)nnc1[C@H]1C[C@@H](C)C1 [Example 186.0, (1R,2S)-1-(5-chloro-2-pyrimidinyl)-N-(4-(4,6-dimethoxy-5-pyrimidinyl)-5-(cis-3-methylcyclobutyl)-4H-1,2,4-triazol-3-yl)-1-methoxy-2-propanesulfonamide]	0.89
COc1ncnc(OC)c1-n1c(NS(=O)(=O)[C@@H](C)[C@H](OC)c2ncc(Cl)cn2)nnc1[C@H]1C[C@H](C)C1 [Example 185.0, (1R,2S)-1-(5-chloro-2-pyrimidinyl)-N-(4-(4,6-dimethoxy-5-pyrimidinyl)-5-(trans-3-methylcyclobutyl)-4H-1,2,4-triazol-3-yl)-1-methoxy-2-propanesulfonamide]	2.7
COc1cccc(OC)c1-n1c(NS(=O)(=O)[C@@H](C)[C@H](C)c2ncc(C)cn2)nnc1C1CCCC1 [Example 17.0, (2S,3R)-N-(5-cyclopentyl-4-(2,6-dimethoxyphenyl)-4H-1,2,4-triazol-3-yl)-3-(5-methylpyrimidin-2-yl)butane-2-sulfonamide]	1.1
COc1ncnc(OC)c1-n1c(NS(=O)(=O)[C@@H](C)[C@H](OC)c2ncc(Cl)cn2)nnc1[C@H]1CC[C@@H](OC)CC1 (single isomer, unassigned) [Example 174.0, (1R,2S)-1-(5-chloropyrimidin-2-yl)-N-(4-(4,6-dimethoxypyrimidin-5-yl)-5-((1s,4R)-4-methoxycyclohexyl)-4H-1,2,4-triazol-3-yl)-1-methoxypropane-2-sulfonamide or (1R,2S)-1-(5-chloropyrimidin-2-yl)-N-(4-(4,6-dimethoxypyrimidin-5-yl)-5-((1r,4S)-4-methoxycyclohexyl)-4H-1,2,4-triazol-3-yl)-1-methoxypropane-2-sulfonamide]	1200
COc1ncnc(OC)c1-n1c(NS(=O)(=O)[C@@H](C)[C@H](OC)c2ncc(Cl)cn2)nnc1[C@H]1C[C@@H](F)C1 (single isomer, unassigned) [Example 163.0, (1R,2S)-1-(5-chloropyrimidin-2-yl)-N-(4-(4,6-dimethoxypyrimidin-5-yl)-5-((1s,3R)-3-fluorocyclobutyl)-4H-1,2,4-triazol-3-yl)-1-methoxypropane-2-sulfonamide or (1R,2S)-1-(5-chloropyrimidin-2-yl)-N-(4-(4,6-dimethoxypyrimidin-5-yl)-5-((1r,3S)-3-fluorocyclobutyl)-4H-1,2,4-triazol-3-yl)-1-methoxypropane-2-sulfonamide]	46
COc1ncnc(OC)c1-n1c(NS(=O)(=O)[C@@H](C)[C@H](OC)c2ncc(Cl)cn2)nnc1[C@H]1CC[C@@H]1C (single isomer, unassigned) [Example 187.0, (1R,2S)-1-(5-chloropyrimidin-2-yl)-N-(4-(4,6-dimethoxypyrimidin-5-yl)-5-((1S,2S)-2-methylcyclobutyl)-4H-1,2,4-triazol-3-yl)-1-methoxypropane-2-sulfonamide or (1R,2S)-1-(5-chloropyrimidin-2-yl)-N-(4-(4,6-dimethoxypyrimidin-5-yl)-5-((1R,2R)-2-methylcyclobutyl)-4H-1,2,4-triazol-3-yl)-1-methoxypropane-2-sulfonamide]	8.8
COc1ncnc(OC)c1-n1c(NS(=O)(=O)[C@@H](C)[C@H](OC)c2ccc(Cl)cn2)nnc1C1CCC1 (single isomer, unassigned) [Example 91.0, (1R,2S)-1-(5-chloropyridin-2-yl)-N-(5-cyclobutyl-4-(4,6-dimethoxypyrimidin-5-yl)-4H-1,2,4-triazol-3-yl)-1-methoxypropane-2-sulfonamide or (1S,2R)-1-(5-chloropyridin-2-yl)-N-(5-cyclobutyl-4-(4,6-dimethoxypyrimidin-5-yl)-4H-1,2,4-triazol-3-yl)-1-methoxypropane-2-sulfonamide]	2.9
COc1cccc(OC)c1-n1c(NS(=O)(=O)[C@@H](C)[C@@H](OC(C)C)c2ncc(C)cn2)nnc1[C@@H]1CCC(=O)C1 (single isomer, unassigned) [Example 229.0, (1S,2S)-N-(4-(2,6-dimethoxyphenyl)-5-((R)-3-oxocyclopentyl)-4H-1,2,4-triazol-3-yl)-1-isopropoxy-1-(5-methylpyrimidin-2-yl)propane-2-sulfonamide or (1S,2S)-N-(4-(2,6-dimethoxyphenyl)-5-((S)-3-oxocyclopentyl)-4H-1,2,4-triazol-3-yl)-1-isopropoxy-1-(5-methylpyrimidin-2-yl)propane-2-sulfonamide]	30
(1S,2S)-N-(4-(2,6-dimethoxyphenyl)-5-(trans-3-methoxycyclobutyl)-4H-1,2,4-triazol-3-yl)-1-(5-methyl-2-pyrimidinyl)-1-(2-propanyloxy)-2-propanesulfonamide or (1S,2S)-N-(4-(2,6-dimethoxyphenyl)-5-(cis-3-methoxycyclobutyl)-4H-1,2,4-triazol-3-yl)-1-(5-methyl-2-pyrimidinyl)-1-(2-propanyloxy)-2-propanesulfonamide [Example 226.0]	21
COCC1(n2c(NS(=O)(=O)[C@@H](C)[C@H](OC)c3ncc(Cl)cn3)nnc2[C@H]2C[C@H](CO)C2)CC1 (single isomer, unassigned) [Example 133.0, (1R,2S)-1-(5-chloro-2-pyriminidyl)-N-(5-(trans-3-(hydroxymethyl)cyclobutyl)-4-(1-(methoxymethyl)cyclopropyl)-4H-1,2,4-triazol-3-yl)-1-methoxy-2-propanesulfonamide or (1R,2S)-1-(5-chloro-2-pyrimidinyl)-N-(5-(cis-3-(hydroxymethyl)cyclobutyl)-4-(1-(methoxymethyl)cyclopropyl)-4H-1,2,4-triazol-3-yl)-1-methoxy-2-propanesulfonamide]	120
COc1ncnc(OC)c1-n1c(NS(=O)(=O)[C@@H](C)[C@H](OC)c2ncc(Cl)cn2)nnc1[C@H]1C[C@@H](C(F)(F)F)C1 (single isomer, unassigned) [Example 177.0, (1R,2S)-1-(5-chloropyrimidin-2-yl)-N-(4-(4,6-dimethoxypyrimidin-5-yl)-5-((1s,3R)-3-(trifluoromethyl)cyclobutyl)-4H-1,2,4-triazol-3-yl)-1-methoxypropane-2-sulfonamide or (1R,2S)-1-(5-chloropyrimidin-2-yl)-N-(4-(4,6-dimethoxypyrimidin-5-yl)-5-((1r,3S)-3-(trifluoromethyl)cyclobutyl)-4H-1,2,4-triazol-3-yl)-1-methoxypropane-2-sulfonamide]	23
CO[C@H](c1ncc(Cl)cn1)[C@H](C)S(=O)(=O)Nc1nnc(C2CCC2)n1-c1c(F)cccc1F [Example 94.0, (1R,2S)-1-(5-chloropyrimidin-2-yl)-N-(5-cyclobutyl-4-(2,6-difluorophenyl)-4H-1,24-triazol-3-yl)-1-methoxypropane-2-sulfonamide]	0.72
COc1ncnc(OC)c1-n1c(NS(=O)(=O)[C@@H](C)[C@H](OC)c2ncc(Cl)cn2)nnc1C1CCC1 [Example 7.0, (1R,2S)-1-(5-chloro-2-pyrimidinyl)-N-(5-cyclobutyl-4-(4,6-dimethoxy-5-pyrimidinyl)-4H-1,2,4-triazol-3-yl)-1-methoxy-2-propanesulfonamide]	66
COc1ncnc(OC)c1-n1c(NS(=O)(=O)[C@@H](C)[C@@H](OC(C)C)c2ncc(Cl)cn2)nnc1[C@@H]1CC[C@@H]1C(F)F (single isomer, unassigned) [Example 168.0, (1S,2S)-1-(5-chloropyrimidin-2-yl)-N-(5-((1R,2S)-2-(difluoromethyl)cyclobutyl)-4-(4,6-dimethoxypyrimidin-5-yl)-4H-1,2,4-triazol-3-yl)-1-isopropylpropane-2-sulfonamide or (1S,2S)-1-(5-chloropyrimidin-2-yl)-N-(5-((1S,2R)-2-(difluoromethyl)cyclobutyl)-4-(4,6-dimethoxypyrimidin-5-yl)-4H-1,2,4-triazol-3-yl)-1-isopropoxypropane-2-sulfonamide]	8
